Here are results for two compounds from PMC4477702 (The Biochemical journal, 2015).

The target of experiment [1] is T1, Arabidopsis (At) COG3236 domain of RIBR (Arabidopsis thaliana, UniProt Q9STY4).
T1 sequence (Q9STY4 405-599 limits assumed): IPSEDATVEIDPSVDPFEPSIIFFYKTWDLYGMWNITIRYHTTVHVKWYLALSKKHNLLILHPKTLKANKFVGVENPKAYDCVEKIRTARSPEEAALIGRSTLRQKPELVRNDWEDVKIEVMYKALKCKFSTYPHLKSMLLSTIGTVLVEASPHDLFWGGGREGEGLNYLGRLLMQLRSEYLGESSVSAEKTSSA
The experiment can be described thus: HPLC-UV product formation. The settings on record: pH 8.0, 22°C, 1 h. It counts as biochemical.

For experiment [2], the target named is T2, N. punctiforme (Np) COG3236 (Nostoc punctiforme, UniProt B2J4E5).
T2 sequence (B2J4E5 1-156): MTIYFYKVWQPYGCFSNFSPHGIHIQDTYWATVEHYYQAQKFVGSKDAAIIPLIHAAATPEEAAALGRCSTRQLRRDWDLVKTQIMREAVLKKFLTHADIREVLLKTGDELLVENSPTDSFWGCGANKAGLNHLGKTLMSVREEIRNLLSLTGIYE
The experiment can be described thus: HPLC-UV product formation. The settings on record: pH 8.0, 22°C, 1 h. It is filed as biochemical.

On to `Nc1c(N[C@@H]2O[C@H](COP(=O)(O)O)[C@@H](O)[C@H]2O)[nH]c(=O)[nH]c1=O` (mixture of isomers) [compound 2, 5-amino-6-ribosylamino-2,4(1H,3H)-pyrimidinedione 5′-phosphate], for which the “HPLC-UV product formation; diacetyl derivatization” value in experiment [1] (2.4 mM substrate, 0.1 μg protein) was “All five COG3236 proteins gave rise to a new HPLC peak when mixed with intermediate”. Besides, the HPLC-UV product formation entry in experiment [2] (2.4 mM substrate, 1 μg protein) was “All five COG3236 proteins gave rise to a new HPLC peak when mixed with intermediate”.

Consider `Nc1nc(N[C@@H]2O[C@H](COP(=O)(O)O)[C@@H](O)[C@H]2O)c(N)c(=O)[nH]1` (mixture of isomers) [compound 1, 2,5-diamino-6-ribosylamino-4(3H)-pyrimidinone 5′-phosphate], for which the “HPLC-UV product formation; diacetyl derivatization” value in experiment [1] (3 mM substrate, 30 μg protein) is “All five COG3236 proteins gave rise to a new HPLC peak when mixed with intermediate”. The HPLC-UV product formation entry in experiment [2] (3 mM substrate, 30 μg protein) is reported as “All five COG3236 proteins gave rise to a new HPLC peak when mixed with intermediate”.
